Data reported in US20010008770A1, “MICRO-ORGANISM WHICH CAN DESULPHURISE BENZOTHIOPHENES” (priority 1996, published 2001).
Entries after “also recorded” stand apart in the source; their conditions may differ.

Experiments:
strain ECRD-1 = conditions: Lee, Senius and Grossman, 1996; cited from earlier work
[1] = test system: Rhodococcus sp. strain 213E; assay: Growth studies of strain 213E in mineral salts medium with a sole sulphur source (biomass OD600, Gibbs phenol assay, GC-MS of metabolites); conditions: for Biomass at end log phase / Mean Generation time: strain 213E in FruRM
Experimental: (§1) The final pH was 7.2 without titration. In some experiments another sugar replaced glucose as the carbon-source.
(§2) For cultures of strain IGTS8, DST (200 μM, added from a stock solution, 40 mM in acetone) was included.
(§3) Growth studies SRM (50 ml in a 100 ml Ehrlenmyer flask) was inoculated with a loopful of cells from a plate and incubated in an orbital shaker (250 rpm, 30° C.). At intervals as appropriate, an 3 ml sample was removed aseptically for measurement of biomass (as optical density at 600 mm, O.D.600) and for phenol production using the Gibbs Assay. The Gibbs Assay was carried out as follows: 1.5 ml of the sample was aliquoted into a Eppendorf tube, centrifuged (12000 rpm, 5 min) to remove the cells and frozen (−20° C.) until the end of the experiment. The samples were then thawed out and 1.0 ml of the supernatant was transferred to a 1 ml disposable spectrophotometer cuvette. 10 μl Gibbs reagent (10 mM in acetone) was then added to each cuvette. A blank solution (SRM +10 μg Gibbs reagent) was also prepared. The set was incubated overnight at 30° C., for full colour development, and the absorbance at 610 nm was measured.
(§4) Cells were removed by centrifugation at 2800×g (3000 rpm) for 30 mins and the supernatant was titrated to pH 1 with 50% HCl and extracted three times with equal volumes of ethyl acetate. The ethyl acetate extracts ware pooled and dried by stirring for 1 h with anhydrous MgSO4 (100 g/l). The ethyl acetate was removed by rotory evaporation and the solids re-dissolved in 3.0 ml ethyl acetate.
(§5) The GC was fitted with a Hewlett Packard capillary column HP-5MS, of length 30 m. The carrier gas was helium. Run conditions were as follows: Start temperature 40° C. held for 2 min, followed by 10° C./min ramp rate to final temperature 240° C. Total run time, 24 min. The mass scan range was 40 to 550 amu.
(§6) The flasks were incubated in an orbital shaker (120 rpm, 30° C.). At intervals 3 ml was withdrawn from each culture under sterile conditions for measurement of biomass and phenol concentration, as described in methods. The cells were also Gram stained and examined under the microscope.

[2] = test system: Rhodococcus sp. strain IGTS8; conditions: background statement; cited from earlier work
[3] = test system: Rhodococcus sp. strain IGTS8; assay: Growth studies of strain IGTS8 in mineral salts medium with a sole sulphur source (biomass OD600, Gibbs phenol assay, GC-MS of metabolites); conditions: for mean generation time (MGT): strain IGTS8, as stated in the text (FruRM)
Experimental: as §1, §2, §3, §4, §5, §6

strain N1-36 = conditions: Wang and Krawiec, 1996a; cited from earlier work
[4] = test system: Rhodococcus sp. strain 213F; assay: Growth studies of strain 213F in mineral salts medium with a sole sulphur source (biomass OD600, Gibbs phenol assay, GC-MS of metabolites); conditions: for Biomass at end log phase / Mean Generation time: strain 213F in FruRM; for Biomass at end log phase / Mean Generation time / mean generation time (MGT): sulphur source 200 μM; for mean generation time (MGT): strain 213F, (FruRM)
Experimental: as §1, §3
The flasks were incubated in an orbital shaker (120 rpm, 30° C.). At intervals 3 ml was withdrawn from each culture under sterile conditions for measurement of biomass and phenol concentration, as described in methods.

[5] = strain IGTS8 in SRM, sulphur source 200 μM

Row | SMILES | desulphurisation of compound by strain 213E [1] | Mean Generation time ([1]; sulphur source 200 μM) | desulphurisation of compound by IGTS8 [2] | desulphurisation of compound by strain IGTS8 [3] | desulphurisation of compound by strain 213F [4] | Biomass at end log phase [4] | Mean Generation time [4] | mean generation time (MGT) [4] | mean generation time (MGT) ([3]; sulphur source 200 μM) | Mean Generation time [3, 5] | also measured
1 | c1ccc2sccc2c1 [BTH, benzothiophene] | efficiently desulphurise | 9.0 h | not | unable to desulphurise; also recorded: does not desulplurise | efficiently desulphurise; also recorded: able to desulphurise; also recorded: appears to desulphurise | 6.0 OD600 | 8.0 h | around 8 h |  |  | desulphurisation activity of strain ECRD-1 (strain ECRD-1): negligible; toxicity to strain 213E (effect on MGT) ([1]; concentration range <200 μM (growth curves 50-200 μM)): not toxic; Biomass at end log phase ([1]; sulphur source 50 μM): 2.3 OD600; Mean Generation time ([1]; sulphur source 50 μM): 8.0 h; Biomass at end log phase ([1]; sulphur source 100 μM): 3.0 OD600; Mean Generation time ([1]; sulphur source 100 μM): 8.6 h; Biomass at end log phase ([1]; sulphur source 200 μM): 4.2 OD600; growth with compound as sole sulphur source ([3]; strain IGTS8 in SRM, over a period of 100 h): no significant growth; desulphurisation activity of strain N1-36 (strain N1-36): negligible
2 | c1ccc2c(c1)sc1ccccc12 [DBT, dibenzothiophene] | unable to desulphurise; also recorded: does not desulphurise |  | desulphurises | desulphurised | able to desulphurise; also recorded: appears to desulphurise | 5.4 OD600 | 12.4 h | 12 h | around 8 h | 7.0 h | growth with compound as sole sulphur source ([1]; strain 213E, compound substituted for BTH, FruRM, over a period of 100 h): no significant growth; Biomass at end log phase ([3]; strain IGTS8 in SRM, sulphur source 200 μM, 1 cm pathlength): 6.0 OD600
3 | O=S(=O)([O-])[O-].[Na+].[Na+] [sulphate, Sodium sulphate] |  | 4.4 h |  |  |  |  | 3.6 h | around 4 h | around 4 h | 3.2 h | mean generation time (MGT) ([1]; strain 213E, sulphur source 200 μM): around 4 h
4 | c1ccsc1 [thiophene] |  |  | not |  |  |  |  |  |  |  | 
